“And” between values parts separate entries of the source, which are not always exact repeats. Identical values can stand only once.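 These data come from cells grown in 96-well plates and exposed to compound for 48 hours at five concentrations. GI50 = concentration required for 50% inhibition of growth.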 The source made the active and inactive calls. Rule as the data show it: active = GI50 up to about 1.1 µM and inactive = higher.
Experiments:
Test in all cases: growth of human tumour cells (NCI), 48 h
HCT-116 = test system: HCT-116
A498 = test system: A498
SF-295 = test system: SF-295
KM12 = test system: KM12
HOP-62 = test system: HOP-62
SNB-75 = test system: SNB-75
EKVX = test system: EKVX
SF-268 = test system: SF-268
LOX IMVI = test system: LOX IMVI
TK-10 = test system: TK-10
OVCAR-8 = test system: OVCAR-8
ACHN = test system: ACHN
HOP-92 = test system: HOP-92
NCI/ADR-RES = test system: NCI/ADR-RES
BT-549 = test system: BT-549
PC-3 = test system: PC-3
Hs-578T = test system: Hs-578T
HL-60 = test system: HL-60
A549 = test system: A549
UACC-257 = test system: UACC-257
NCI-H460 = test system: NCI-H460
MOLT-4 = test system: MOLT-4
CCRF-CEM = test system: CCRF-CEM
SN12C = test system: SN12C
MDA-MB-435 = test system: MDA-MB-435
MDA-MB-231 = test system: MDA-MB-231
K562 = test system: K562
SK-MEL-28 = test system: SK-MEL-28
CAKI-1 = test system: CAKI-1
M14 = test system: M14
SNB-19 = test system: SNB-19
SK-MEL-2 = test system: SK-MEL-2
SR = test system: SR
OVCAR-3 = test system: OVCAR-3
UACC-62 = test system: UACC-62
MCF7 = test system: MCF7
SF-539 = test system: SF-539
RPMI-8226 = test system: RPMI-8226
NCI-H522 = test system: NCI-H522
SK-OV-3 = test system: SK-OV-3
NCI-H226 = test system: NCI-H226
HCT-15 = test system: HCT-15
HCC 2998 = test system: HCC 2998
SW-620 = test system: SW-620
OVCAR-4 = test system: OVCAR-4
HT-29 = test system: HT-29
NCI-H23 = test system: NCI-H23
MDA-N = test system: MDA-N
RXF 393 = test system: RXF 393
IGROV-1 = test system: IGROV-1
OVCAR-5 = test system: OVCAR-5
UO-31 = test system: UO-31
U-251 = test system: U-251
COLO 205 = test system: COLO 205
DU-145 = test system: DU-145
SK-MEL-5 = test system: SK-MEL-5
786-0 = test system: 786-0
Malme-3M = test system: Malme-3M
T47D = test system: T47D

CC(=O)OCC1OC(OCCCCCCO)C(OC(C)=O)C(OC(C)=O)C1OC(C)=O (centres undefined)
GI50 (HCT-116): > 100 µM (inactive) | GI50 (A498): > 100 µM (inactive) | GI50 (SF-295): > 100 µM (inactive) | GI50 (KM12): > 100 µM (inactive) | GI50 (HOP-62): > 100 µM (inactive) | GI50 (SNB-75): > 100 µM (inactive) | GI50 (EKVX): > 100 µM (inactive) | GI50 (SF-268): > 100 µM (inactive) | GI50 (LOX IMVI): > 100 µM (inactive) | GI50 (TK-10): > 100 µM (inactive) | GI50 (OVCAR-8): > 100 µM (inactive) | GI50 (ACHN): > 100 µM (inactive) | GI50 (HOP-92): > 100 µM (inactive) | GI50 (NCI/ADR-RES): > 100 µM (inactive) | GI50 (BT-549): > 100 µM (inactive) | GI50 (PC-3): > 100 µM (inactive) | GI50 (Hs-578T): > 100 µM (inactive) | GI50 (HL-60): > 100 µM (inactive) | GI50 (A549): > 100 µM (inactive) | GI50 (UACC-257): > 100 µM (inactive) | GI50 (NCI-H460): > 100 µM (inactive) | GI50 (MOLT-4): > 100 µM (inactive) | GI50 (CCRF-CEM): > 100 µM (inactive) | GI50 (SN12C): > 100 µM (inactive) | GI50 (MDA-MB-435): > 100 µM (inactive) | GI50 (MDA-MB-231): > 100 µM (inactive) | GI50 (K562): > 100 µM (inactive) | GI50 (SK-MEL-28): > 100 µM (inactive) | GI50 (CAKI-1): > 100 µM (inactive) | GI50 (M14): > 100 µM (inactive) | GI50 (SNB-19): > 100 µM (inactive) | GI50 (SK-MEL-2): > 100 µM (inactive) | GI50 (SR): > 100 µM (inactive) | GI50 (OVCAR-3): > 100 µM (inactive) | GI50 (UACC-62): > 100 µM (inactive) | GI50 (MCF7): > 100 µM (inactive) | GI50 (SF-539): > 100 µM (inactive) | GI50 (RPMI-8226): > 100 µM (inactive) | GI50 (NCI-H522): > 100 µM (inactive) | GI50 (SK-OV-3): > 100 µM (inactive) | GI50 (NCI-H226): > 100 µM (inactive) | GI50 (HCT-15): > 100 µM | GI50 (HCC 2998): > 100 µM (inactive) | GI50 (SW-620): > 100 µM (inactive) | GI50 (OVCAR-4): > 100 µM (inactive) | GI50 (HT-29): > 100 µM (inactive) | GI50 (NCI-H23): > 100 µM (inactive) | GI50 (MDA-N): > 100 µM (inactive) | GI50 (RXF 393): > 100 µM (inactive) | GI50 (IGROV-1): > 100 µM (inactive) | GI50 (OVCAR-5): > 100 µM (inactive) | GI50 (UO-31): > 100 µM (inactive) | GI50 (U-251): > 100 µM (inactive)

Cc1[nH]c2ccccc2c1C1=CC(=O)N(c2ccccc2)C1=O
GI50 (HCT-116): 8.75 µM (inactive) | GI50 (A498): 9.71 µM (inactive) | GI50 (SF-295): 26.7 µM (inactive) | GI50 (HOP-62): 7.98 µM (inactive) | GI50 (EKVX): 16.8 µM (inactive) | GI50 (SF-268): 15.8 µM (inactive) | GI50 (LOX IMVI): 5.55 µM (inactive) | GI50 (TK-10): 11.1 µM (inactive) | GI50 (OVCAR-8): 14.8 µM (inactive) | GI50 (ACHN): 23.2 µM (inactive) | GI50 (COLO 205): 17.7 µM (inactive) | GI50 (HOP-92): 7.74 µM (inactive) | GI50 (NCI/ADR-RES): 20.2 µM (inactive) | GI50 (BT-549): 5.31 µM (inactive) | GI50 (PC-3): 11.9 µM (inactive) | GI50 (Hs-578T): 8.22 µM (inactive) | GI50 (HL-60): 10.7 µM (inactive) | GI50 (A549): 22.5 µM (inactive) | GI50 (UACC-257): 13.1 µM (inactive) | GI50 (NCI-H460): 14.6 µM (inactive) | GI50 (MOLT-4): 36.2 µM (inactive) | GI50 (CCRF-CEM): 8.45 µM (inactive) | GI50 (SN12C): 13.8 µM (inactive) | GI50 (MDA-MB-435): 15.6 µM (inactive) | GI50 (MDA-MB-231): 28.2 µM (inactive) | GI50 (K562): 6.37 µM (inactive) | GI50 (SK-MEL-28): 6.46 µM (inactive) | GI50 (CAKI-1): 6.22 µM (inactive) | GI50 (M14): 13.6 µM (inactive) | GI50 (SNB-19): 22.1 µM (inactive) | GI50 (DU-145): 4.74 µM (inactive) | GI50 (SK-MEL-2): 13.6 µM (inactive) | GI50 (OVCAR-3): 9.53 µM (inactive) | GI50 (UACC-62): 9.82 µM (inactive) | GI50 (MCF7): 5.28 µM (inactive) | GI50 (SF-539): 10.8 µM (inactive) | GI50 (RPMI-8226): 11.3 µM (inactive) | GI50 (SK-OV-3): 34.3 µM (inactive) | GI50 (NCI-H226): 19 µM (inactive) | GI50 (SK-MEL-5): 8 µM (inactive) | GI50 (HCT-15): 7.76 µM | GI50 (HCC 2998): 1.75 µM (inactive) | GI50 (SW-620): 5.38 µM (inactive) | GI50 (HT-29): 5.58 µM (inactive) | GI50 (NCI-H23): 12.1 µM (inactive) | GI50 (RXF 393): 6.67 µM (inactive) | GI50 (786-0): 10.8 µM (inactive) | GI50 (Malme-3M): 13.9 µM (inactive) | GI50 (IGROV-1): 32.1 µM (inactive) | GI50 (OVCAR-5): 23.1 µM (inactive) | GI50 (UO-31): 19 µM (inactive) | GI50 (U-251): 17.3 µM (inactive)

COC(=O)C1C(O)CCC2CN3CCc4c([nH]c5ccccc45)C3CC21 (centres undefined)
GI50 (HCT-116): > 100 µM (inactive) | GI50 (A498): > 100 µM (inactive) | GI50 (SF-295): > 100 µM (inactive) | GI50 (KM12): > 95.1 µM (inactive) | GI50 (SNB-75): 56 µM (inactive) | GI50 (EKVX): > 91 µM (inactive) | GI50 (SF-268): > 78 µM (inactive) | GI50 (LOX IMVI): > 100 µM (inactive) | GI50 (TK-10): > 100 µM (inactive) | GI50 (OVCAR-8): > 100 µM (inactive) | GI50 (COLO 205): > 100 µM (inactive) and > 68.7 µM (inactive) | GI50 (HOP-92): > 51.4 µM (inactive) | GI50 (NCI/ADR-RES): > 100 µM (inactive) | GI50 (Hs-578T): > 100 µM (inactive) | GI50 (UACC-257): > 87.1 µM (inactive) | GI50 (SN12C): > 100 µM (inactive) | GI50 (MDA-MB-231): > 100 µM (inactive) | GI50 (K562): > 100 µM (inactive) | GI50 (T47D): > 71.4 µM (inactive) | GI50 (M14): > 100 µM (inactive) | GI50 (DU-145): > 100 µM (inactive) and > 87.7 µM (inactive) | GI50 (SK-MEL-2): > 100 µM (inactive) and > 80.5 µM (inactive) | GI50 (UACC-62): > 100 µM (inactive) | GI50 (MCF7): > 100 µM (inactive) and > 72.9 µM (inactive) | GI50 (SF-539): > 100 µM (inactive) | GI50 (RPMI-8226): > 100 µM (inactive) | GI50 (NCI-H522): > 100 µM (inactive) | GI50 (NCI-H226): > 100 µM (inactive) | GI50 (SK-MEL-5): > 100 µM (inactive) | GI50 (HCT-15): > 67.3 µM | GI50 (HCC 2998): > 100 µM (inactive) | GI50 (HT-29): > 100 µM (inactive) and 72.8 µM (inactive) | GI50 (NCI-H23): > 100 µM (inactive) | GI50 (MDA-N): > 100 µM (inactive) and > 92 µM (inactive) | GI50 (RXF 393): > 100 µM (inactive) | GI50 (Malme-3M): > 68.1 µM (inactive) | GI50 (IGROV-1): 67.1 µM (inactive) | GI50 (OVCAR-5): > 66.2 µM (inactive) | GI50 (UO-31): 54.2 µM (inactive)

Reference: ChEMBL document CHEMBL1201862, “PubChem BioAssay data set” (2004)
